Results taken from ChEMBL document CHEMBL1153018, “Synthesis of pochoxime prodrugs as potent HSP90 inhibitors” (Bioorg Med Chem Lett, 2009).
Calls of active or inactive are those of the source. The calls are words filed in the database; no cut-off is given here.

Assays:
[1] = Drug level in tumor of human BT474 cells xenografted in ICR-SCID mouse at 100 mg/kg, ip administered after 3 weeks tumor implantation measured after 48 hrs; format: ADME, organism-based, Neoplasm, BT-474; set-up: dose 100 mg/kg, route intraperitoneal; conditions: tumor (human BT474 xenograft), read-out: Drug uptake
NCI-H1975 [2] = test: Induction of mutant Met degradation in human tarceva and iressa-resistant NCI-H1975 cells at 20 to 500 nM by Western blotting; format: functional, cell-based
Mus musculus [3] = test: Hepatotoxicity in ICR-SCID mouse liver assessed as alanine aminotransferase level at 100 mg/kg administered 3 times per week for 4 weeks measured after 24 hrs of last dose relative to untreated control; format: toxicity, organism-based; set-up: dose 100 mg/kg; conditions: in vivo
HCC827 [4] = test: Induction of mutant p-Akt degradation in human tarceva and iressa-resistant HCC827 cells at 20 to 500 nM by Western blotting; format: functional, cell-based
Mus musculus [5] = test: Toxicity in ICR-SCID mouse heart assessed as cholesterol level at 100 mg/kg administered 3 times per week for 4 weeks measured after 24 hrs of last dose relative to untreated control; format: organism-based; set-up: dose 100 mg/kg; conditions: in vivo
[6] = Oral bioavailability in mouse; format: ADME, organism-based; conditions: in vivo
Mus musculus [7] = test: Toxicity in ICR-SCID mouse heart assessed as […] level at 150 mg/kg administered 3 times per week for 4 weeks measured after 24 hrs of last dose relative to untreated control; format: organism-based; set-up: dose 150 mg/kg; conditions: in vivo
Mus musculus [8] = test: Hepatotoxicity in ICR-SCID mouse liver assessed as aspartate aminotransferase level at 150 mg/kg administered 3 times per week for 4 weeks measured after 24 hrs of last dose relative to untreated control; format: toxicity, organism-based; set-up: dose 150 mg/kg; conditions: in vivo
NCI-H1975 [9] = test: Induction of mutant Cdk4 degradation in human tarceva and iressa-resistant NCI-H1975 cells at 20 to 500 nM by Western blotting; format: functional, cell-based
PC-3 = test: Growth inhibition of human PC3 cells assessed as ATP level after 4 days; format: functional, cell-based
HCC827 [10] = test: Induction of mutant Cyclin D degradation in human tarceva and iressa-resistant HCC827 cells at 20 to 500 nM by Western blotting; format: functional, cell-based
[11] = Bioavailability in […] dosed mouse; format: ADME, organism-based; conditions: in vivo
Mus musculus [12] = test: Toxicity in ICR-SCID mouse heart assessed as […] level at 100 mg/kg administered 3 times per week for 4 weeks measured after 24 hrs of last dose relative to untreated control; format: organism-based; set-up: dose 100 mg/kg; conditions: in vivo
Mus musculus [13] = test: Toxicity in ICR-SCID mouse kidney assessed as BUN level at 100 mg/kg administered 3 times per week for 4 weeks measured after 24 hrs of last dose relative to untreated control; format: organism-based; set-up: dose 100 mg/kg; conditions: in vivo
BT-474 [14] = test: Growth inhibition of human BT474 cells assessed as ATP level after 4 days; format: functional; conditions: BT-474, 96 h
BT-474 [15] = test: Induction of c-Raf degradation in human BT474 cells xenografted in ICR-SCID mouse at 100 mg/kg, ip administered after 3 weeks tumor implantation after 6 to 48 hrs by Western blotting; format: functional, organism-based; set-up: dose 100 mg/kg
BT-474 [16] = test: Induction of HER2 degradation in human BT474 cells xenografted in ICR-SCID mouse at 100 mg/kg, ip administered after 3 weeks tumor implantation after 6 to 48 hrs by Western blotting; format: functional, organism-based; set-up: dose 100 mg/kg
[17] = Drug level in tumor of human BT474 cells xenografted in ICR-SCID mouse at 150 mg/kg, ip administered after 3 weeks tumor implantation measured after 48 hrs; format: ADME, organism-based, Neoplasm, BT-474; set-up: dose 150 mg/kg, route intraperitoneal; conditions: tumor (human BT474 xenograft), read-out: Drug uptake
Mus musculus [18] = test: Toxicity in ICR-SCID mouse kidney assessed as BUN level at 150 mg/kg administered 3 times per week for 4 weeks measured after 24 hrs of last dose relative to untreated control; format: organism-based; set-up: dose 150 mg/kg; conditions: in vivo
BT-474 [19] = test: Induction of Cyclin D degradation in human BT474 cells xenografted in ICR-SCID mouse at 100 mg/kg, ip administered after 3 weeks tumor implantation after 6 to 48 hrs by Western blotting; format: functional, organism-based; set-up: dose 100 mg/kg
Mus musculus [20] = test: Toxicity in ICR-SCID mouse kidney assessed as creatinine level at 150 mg/kg administered 3 times per week for 4 weeks measured after 24 hrs of last dose relative to untreated control; format: organism-based; set-up: dose 150 mg/kg; conditions: in vivo
Mus musculus [21] = test: Hepatotoxicity in ICR-SCID mouse liver assessed as bilirubin level at 100 mg/kg administered 3 times per week for 4 weeks measured after 24 hrs of last dose relative to untreated control; format: toxicity, organism-based; set-up: dose 100 mg/kg; conditions: in vivo
[22] = Drug level in tumor of human BT474 cells xenografted in ICR-SCID mouse at 100 mg/kg, ip administered after 3 weeks tumor implantation measured after 6 hrs; format: ADME, organism-based, Neoplasm, BT-474; set-up: dose 100 mg/kg, route intraperitoneal; conditions: tumor (human BT474 xenograft), read-out: Drug uptake
[23] = Drug level in tumor of human BT474 cells xenografted in ICR-SCID mouse at 200 mg/kg, ip administered after 3 weeks tumor implantation measured after 24 hrs; format: ADME, organism-based, Neoplasm, BT-474; set-up: dose 200 mg/kg, route intraperitoneal; conditions: tumor (human BT474 xenograft), read-out: Drug uptake
[24] = Drug level in tumor of human BT474 cells xenografted in ICR-SCID mouse at 150 mg/kg, ip administered after 3 weeks tumor implantation measured after 6 hrs; format: ADME, organism-based, Neoplasm, BT-474; set-up: dose 150 mg/kg, route intraperitoneal; conditions: tumor (human BT474 xenograft), read-out: Drug uptake

In the case of O=C1OCC/C=C/CC/C=C/C(=N/OCC(=O)N2CCCCC2)Cc2c(Cl)c(O)cc(O)c21 [POCHOXIME A], the concentration at 48 h [1] is reported as 1500 ng/g, the Activity (NCI-H1975 [2]) is reported as “Active” and the Activity (Mus musculus [3]) is reported as 19.3 U/L. The Activity (HCC827 [4]) was “Active”, the Activity (Mus musculus [5]) was 168 mg/dL and the bioavailability [6] was 3.4%. For the same molecule, the Activity (Mus musculus [7]) was 31 U/L, the Activity (Mus musculus [8]) was 191 U/L and the Activity (NCI-H1975 [9]) was “Active”. For the same molecule, the Activity (PC-3) was “Active”, the Activity (HCC827 [10]) was “Active” and the bioavailability [11] was 60.5%. For the same molecule, the Activity (Mus musculus [12]) was 15.2 U/L, the Activity (Mus musculus [13]) was 20 mg/dL and the GI50 (BT-474 [14]) was 7 nM. The Activity (BT-474 [15]) was “Active”, the Activity (BT-474 [16]) was “Active” and the concentration at 48 h [17] was 4580 ng/g. For the same molecule, the Activity (Mus musculus [18]) was 19 mg/dL, the Activity (BT-474 [19]) was “Active” and the Activity (Mus musculus [20]) was 0.2 mg/dL. For the same molecule, the Activity (Mus musculus [21]) was 0.2 mg/dL, the concentration at 6 h [22] was 5490 ng/g and the concentration at 24 h [23] was 10200 ng/g. It also gave a concentration at 6 h [24] of 6180 ng/g.
